Experimental data as given in BindingDB's records for doi:10.1016/j.bioorg.2016.01.008 (King Abdulaziz University, 2016).

What follows are compounds tested against Alpha-glucosidase MAL12 (Saccharomyces cerevisiae (strain ATCC 204508 / S288c), UniProt P53341) (assay: In-vitro Yeast α-Glucosidase Inhibition Assay).
Protocol: α-Glucosidase inhibitory activity was evaluated at 37 °C, by using 0.1M phosphatebuffer (pH6.8) [28]. The enzyme(EC3.2.1.20, Saccharomyces cerevisiae purchased from sigma; catalog # G5003) (0.2 U/mL) was incubated with test compounds and phosphate buffer at 37 °C for 15 min. After 15min of incubation, 0.7 mM of substrate i.e. p-nitrophenyl-α-D-glucopyranoside (Sigma; catalog # N1377) was added and the change in absorbance was recorded at 400 nm for 30min by using spectrophotometer (SpectraMax M2, Molecular Devices, CA, USA).

Alpha-glucosidase MAL12, sequence (P53341 whole entry): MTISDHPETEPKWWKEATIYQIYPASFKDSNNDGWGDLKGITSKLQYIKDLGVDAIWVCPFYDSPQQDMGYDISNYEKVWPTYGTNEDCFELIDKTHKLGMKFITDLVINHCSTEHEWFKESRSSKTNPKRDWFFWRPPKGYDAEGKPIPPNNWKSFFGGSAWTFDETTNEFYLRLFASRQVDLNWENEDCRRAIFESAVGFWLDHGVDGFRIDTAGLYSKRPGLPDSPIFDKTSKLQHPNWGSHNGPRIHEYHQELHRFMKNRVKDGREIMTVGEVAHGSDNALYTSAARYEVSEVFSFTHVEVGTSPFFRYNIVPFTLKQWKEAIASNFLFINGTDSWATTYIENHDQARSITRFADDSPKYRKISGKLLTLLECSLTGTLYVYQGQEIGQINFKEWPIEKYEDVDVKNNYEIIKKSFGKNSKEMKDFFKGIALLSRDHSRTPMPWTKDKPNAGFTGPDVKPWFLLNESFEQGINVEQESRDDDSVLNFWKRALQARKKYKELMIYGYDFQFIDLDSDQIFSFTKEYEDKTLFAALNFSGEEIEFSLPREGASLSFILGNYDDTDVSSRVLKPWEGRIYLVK

SMILES | IC50
Cc1[nH]nc2c1C(c1ccc([N+](=O)[O-])cc1)C(C#N)=C(N)O2 (stereo not given) [6-Amino-3-methyl-4-(4-nitrophenyl)-2,4-dihydropyrano[2,3-c]pyrazole-5-carbonitrile (1)] | 54.2 µM
Cc1n[nH]c2c1C(c1ccc(Cl)cc1Cl)C(C#N)=C(N)O2 (stereo not given) [6-Amino-4-(2,4-dichlorophenyl)-3-methyl-2,4-dihydropyrano[2,3-c]pyrazole-5-carbonitrile (4)] | 180 µM
Cc1[nH]nc2c1C(c1ccccc1OCc1ccccc1)C(C#N)=C(N)O2 (stereo not given) [6-Amino-4-(2-(benzyloxy)phenyl)-3-methyl-2,4-dihydropyrano[2,3-c]pyrazole-5-carbonitrile (33)] | 164 µM
Cc1[nH]nc2c1C(c1ccc(O)c(OCc3ccccc3)c1)C(C#N)=C(N)O2 (stereo not given) [6-Amino-4-(3-(benzyloxy)-4-hydroxyphenyl)-3-methyl-2,4-dihydropyrano[2,3-c]pyrazole-5-carbonitrile (22)] | 160 µM
COc1cc(C2C(C#N)=C(N)Oc3n[nH]c(C)c32)ccc1OCc1ccccc1 (stereo not given) [6-Amino-4-(4-(benzyloxy)-3-methoxyphenyl)-3-methyl-2,4-dihydropyrano[2,3-c]pyrazole-5-carbonitrile (30)] | 60.8 µM
